In patent US10106582B2, “Complex-formation-modulating agents and uses therefor” (Factor Therapeutics Limited, priority 2012, dated 2018):

What was measured:
Assay type in all cases: cell-based, human
MCF-7 cells [1] = test: Transwell migration assay, IGF-I+IGFBP-5+VN trimeric complex-stimulated MCF-7 cell migration
Excerpt: Two motifs (motifs 1 and 8) within native VN, deemed potentially significant in supporting the binding of IGF-II, IGFBP-3 and IGFBP-5, were identified as outlined in the previous section. After preliminary in silico analyses motif 8 (J4-7) was deemed as potentially the most significant region within native VN supporting binding interactions of all the three IGF-II, IGFBP-3 and IGFBP-5 proteins and was chosen for the initial analyses. The VN-peptide covering the sequences of motif 8 was designed such that it covered all the 3AA frameshift sets that contributed to a positive spot within the motif 8 (see, FIG. 3 and Table 7). The sequence of this peptide is RVNLRTRRVDTVDPPYPRS [SEQ ID NO:100] and is designated P8. […] The sequence of that peptide is […] [SEQ ID NO:86] and is designated P7. […] The functional effects of these peptides on IGF-I:IGFBP:VN-stimulated breast cancer cell migration were investigated using Transwell® assays. Transwells® were pre-bound with VN, either alone or in combination with IGF-I and IGFBP-5 (TRI). Treatment with TRI supplemented with increasing concentrations of peptides P7 and/or P8 were assayed. TRI supplemented with Anlg or Neg peptide were included as positive and negative controls of migration inhibition, respectively. All unbound proteins were removed with washing and MCF-7 cell migration was assessed over 15 hours.
The Transwell® inserts were prepared by pre-binding the lower chamber and the under-surface of the 8-μm pore membranes with proteins as described below. For all 2D functional assays described throughout this study, including Transwell® the treatments for the pre-binding steps were VN, IGF-I+IGFBP-5+VN (TRI) complex, either alone or in combination with respective controls or VN-peptides. The concentrations of the proteins added into the culture wells were VN, 1 μg/mL; IGF-I, 30 ng/mL and IGFBP-5, 90 ng/mL, unless otherwise stated. The concentration of VN-peptides used are indicated where appropriate.
Optimal IGF-I:IGFBP-5:VN-mediated attachment and migration of MCF-7 cells in multiwell plates is obtained by pre-binding human native-IGF-I and/or IGFBP-5 and VN at concentrations of 30 ng/mL, 90 ng/mL and 1 μg/mL per well, respectively, to the lower chambers and under surfaces of Transwells®. […] For Anlg, concentrations varying from 30 ng/mL to 300 ng/mL were used.
Transwells® were prepared by pre-binding the test proteins, either alone or in combinations, to the lower chambers and under-surfaces of Transwells® following procedures previously described (Kricker et al., 2003). Briefly, 0.5 mL DMEM/F12 serum-free phenol-red free medium (SFM) containing 1 μg/mL VN was added to the lower chambers of 24-well, 8-μm pore Transwell® plates and incubated for 3 hours at 37° C. Unbound VN was removed and the wells were washed twice with 0.5 mL SFM+0.5% BSA following which 0.5 mL of SFM+0.5% BSA was placed in the lower chamber to block surfaces with no protein bound. To pre-bind growth factors, 0.5 mL SFM+0.05% BSA containing native IGF-I (30 ng/mL), IGFBP-5 (90 ng/mL) or Anlg, either alone or in combination, were added to the lower chambers of the Transwells® and incubated overnight at 4° C. The solution containing unbound growth factors was removed and the wells were washed twice with SFM+0.05% BSA and replaced with 0.5 mL of SFM+0.05% BSA. Throughout the pre-binding procedure care was taken to keep the upper surface of the Transwell® inserts dry.
Migration assays were essentially performed following protocols described previously in Leavesley et al 1993, J Cell Biol. 121:163-70. The cells in culture flasks were split 1:1, 24 hours prior to performing the migration assay. The cells were serum-starved for 4 hours and a cell suspension containing 6×10^4 cells in 200 μL SFM+0.05% BSA was seeded onto the upper-surface of the pre-coated Transwell® inserts and incubated for 15 hours at 37° C., 5% CO2 (refer to above for proteins pre-bound and concentrations used). […]

MCF-7 cells [2] = test: Transwell migration assay, IGF-I+IGFBP-3+VN (TRI)-stimulated MCF-7 cell migration
Method: FIG. 6 is a graphical representation showing MCF-7 cell migration in response to VN peptides. MCF-7 cells were seeded onto the upper-surface of a Transwell inserts coated on the under-surface with treatments containing IGF-I+IGFBP-3+VN (TRI; 10 nM) with or without increasing concentrations of either peptide P7, P8 or Pneg. Migration was assessed after 15 hours. Data is represented as percentage of change in migration compared to the TRI only control. Error bars indicate standard error mean.
This assay has been repeated three times with treatments tested in triplicate wells in each replicate experiment.
The breast cancer epithelial cell line MCF-7 was used for this assay. Migration was assessed by measuring relative number of cells migrating through 8-μm pore Transwell membranes in response to substrate-bond proteins complexes. IGFBP-3 was allowed to bind either peptide P7, P8 or a combination of P7 and P8 for 2 hours. IGF-I was later added to this protein mix which was then added to Transwells pre-coated with VN. Post-overnight incubation, unbound proteins were removed, Transwells washed twice and cells seeded onto the upper chamber. Cells migrated to the under-surface over 15 hours were indirectly quantified using crystal violet staining.

MCF-7 cells [3] = test: 3D Matrigel growth assay of MCF-7 tumor spheroids
Excerpt: FIG. 7 is a photographic and graphical representation showing MCF-7 3D cell growth in response to peptide antagonists. MCF-7 cells suspended in media containing 1% serum and 2.5% Matrigel (Matrigel media) were layered onto a thin layer of 100% Matrigel. Spheroids were allowed to form in Matrigel media containing VN, TRI or TRI supplemented with peptides P7 and P8. Cells were allowed to grow for 14 days with media+proteins changed every 3 days. (A) Phase contrast and fluorescence microscopy was used to obtain images of the spheroids treated with 90 nM P7, P8 or P7+8. The fluorescent images were subjected to analysis using Image J to calculate spheroid sizes. The images post-ImageJ analyses are depicted in the bottom panel of A. All the images depicted are representative images obtained from triplicate experiments with treatments tested in duplicates in each replicate experiment. Scale bar denotes 100 μm. (B) Scatter plot depicts mean spheroid size (μm^2) at Day 14 for each treatment, calculated using Image-J (90 nM peptide treatments are depicted here). Each data point in the graph is the average size of all spheroids present in a single field of view at 40× magnification. ** denotes p<0.01 and * denotes p<0.05. (C) To measure cell viability/proliferation the 3D culture was treated on Day 14 with 5% Alamar Blue dye for 4 hours and fluorescence intensities were recorded. Error bars indicate SEM. ** denotes p<0.01 Vs TRI and * denotes p<0.05 Vs TRI. The experiment was repeated twice with treatments tested in duplicate wells in each replicate experiment. TRI=IGF-I:IGFBP-5:VN trimeric complex (equimolar at 10 nM concentrations).
To closely mimic in vivo conditions, cells were grown in a 3D matrix (Matrigel) closely resembling in vivo extracellular matrix physiology. MCF-7 cells suspended in growth media containing 1% serum and 2.5% Matrigel (Matrigel media) were layered onto a thin layer of 100% Matrigel. Tumor spheroids were allowed to form for 3 days after which spent media was replenished with Matrigel media containing VN only, trimeric complex, or trimeric complex supplemented with increasing concentrations of peptides (P7, P8 or P7+P8). Cells were allowed to grow for additional 11 days with media+proteins changed every 3 days. Spheroid morphology was assessed using phase-contrast microscopy and cell viability was measured using AlamarBlue, a fluorescent metabolic dye.

## RVNLRTRRVDTVDPPYPRS (listed as Homo sapiens) [Peptide P8, human VN motif 8 mimic]
MCF-7 cells [1]; TRI supplemented with peptide at 3× molar concentration of IGFBP-5 (43 ng/mL P7, 38 ng/mL P8), 15 hours
  MCF-7 cell migration: 94.4±1 % of VN
MCF-7 cells [1]; TRI supplemented with peptide at 9× molar concentration of IGFBP-5, 15 hours
  MCF-7 cell migration: 121.7±8 % of VN
MCF-7 cells [2]; 30 nM peptide dose, TRI 10 nM, 15 hours (most significant inhibition)
  Inhibition of TRI-stimulated MCF-7 cell migration: returned to the ‘VN only’ treatment levels
MCF-7 cells [2]; increasing peptide concentrations added to TRI (IGF-I+IGFBP-3+VN; 10 nM), 15 hours
  Inhibition of TRI-stimulated MCF-7 cell migration: dose dependent inhibition
MCF-7 cells [3]; 90 nM peptide, Day 14, 3D Matrigel culture
  TRI-stimulated cell viability (AlamarBlue): significantly inhibit
MCF-7 cells [3]; 90 nM peptide, Day 14, phalloidin staining
  Spheroid size (ImageJ) versus control TRI treatment: highest inhibitory effects
MCF-7 cells [3]; increasing concentrations of peptides, Matrigel 3D culture, 14 days
  Size of TRI-treated tumor spheroids (phase-contrast microscopy): decrease with increasing concentrations
